Measured values published in patent US4605673A, “7H-dibenzo(a,c,)cyclohepten-5-one-(7) derivatives” (Warner-Lambert Company, priority 1982, dated 1986).
Counter-ions that a name gives are not always drawn. Like-named read-outs stand apart in the source and are kept apart here.

How the values were obtained:
spontaneous motility = assay: (C) Locomotive activity (spontaneous motility), photoelectric systems; assay type: in vivo; conditions: mice; for Spontaneous motility (C), M = methaqualone: 40 m/g i.g.
Description: (C) The locomotive activity reflects the stimulating or depressive effects on the C.N. system. The spontaneous motility (impulses per minute) was measured in mice by means of photoelectric systems according to Irwin (Rev. Can. Biol. 20, 239 (1961). K in the margin=control, (twice), M=methaqualone (40 m/g i.g.) and S=substance.

[1] = (E) Anticholinergic action measured as mydriasis; assay type: in vivo, mice; conditions: mouse, in vivo, po
Excerpt: (§1) (E) Anticholinergic action measured as mydriasis (mice).

Toxicity (LD50) = conditions: in vivo
[2] = system: hexobarbital sleeping period; assay: (D) Hexobarbital sleeping period (central sedating or stimulating effects); assay type: in vivo; conditions: mice, 82.5 mg/kg hexobarbital IV
Description: (D) The lengthening of the sleeping period is a common in vivo method for the determination of central sedating or stimulating effects. The test animals are mice subsequent to intravenous (IV) injection with 82.5 mg/kg hexobarbital. The influence on the sleeping period under the trial substance is given in % for control purposes.

[3] = system: blood-pressure effect of noradrenaline and adrenaline; assay: (F) Autonomous test model after IV catecholamine administration (potentiation of blood-pressure effect of noradrenaline and adrenaline); assay type: in vivo, dogs; conditions: for Potentiation of catecholamine blood-pressure effect (F): dogs, result in words
Excerpt: (F) Autonomous test model in dogs after IV catecholamine administration.

[4] = system: Reserpine-induced hypothermia; assay: (A) Reserpine-induced hypothermia in mice (antidepressive action); assay type: in vivo; conditions: Mus musculus, read-out: Minimal dosage which leads to normalization of body temperature (A)
Excerpt: The minimal dosage is given which leads to normalization of body temperature measured rectally.

mydriasis = assay: (E) Anticholinergic action measured as mydriasis; assay type: in vivo, mice; conditions: mice
Excerpt: as §1

gastric secretion = assay: Shay preparation, gastric secretion; assay type: in vivo; conditions: po
[5] = 10 mg/kg s.c., control K 12 (4A), 13 (4B)

Structure (SMILES) | LD50 (Toxicity (LD50); po, i.g.) | minimal effective dose ([4]; sc) | Potentiation of catecholamine blood-pressure effect (F) [3] | minimal effective dose ([4]; po, i.g.) | Anticholinergic action (mydriasis) (E) (mydriasis; up to 75 mg/kg s.c.) | other results
Cc1ccccc1-n1c(C)nc2ccccc2c1=O [M] |  |  |  |  |  | Spontaneous motility (C), M = methaqualone (spontaneous motility; Amitryptyline column, control K 20): 2 impulses per minute; Spontaneous motility (C), M = methaqualone (spontaneous motility; Example 1 column, control K 20): 2 impulses per minute; Spontaneous motility (C), M = methaqualone (spontaneous motility; Example 4A column, control K 16): 3 impulses per minute; Spontaneous motility (C), M = methaqualone (spontaneous motility; Example 4B column, control K 20): 2 impulses per minute; Spontaneous motility (C), M = methaqualone (spontaneous motility; Example 4C column, control K 19): 6 impulses per minute
CN(C)CCC=C1c2ccccc2CCc2ccccc21 [Amitryptyline, reference compound] | 200 mg/kg | 5 mg/kg |  |  |  | Spontaneous motility (C), S = substance (spontaneous motility; 5 mg/kg s.c., control K 17): 4 impulses per minute; ED50 [1]: 23 mg/kg; LD50 (Toxicity (LD50); sc): 100 mg/kg; Influence on the sleeping period (D) ([2]; 5 mg/kg s.c.): +103%; ED50 ([3]; Canis lupus familiaris, iv, read-out: Potentiation of catecholamine blood-pressure effect ED50 (F)): 1 mg/kg
CNCCCc1cc(=O)c2ccccc2c2ccccc12 [Example 4C, 5-(3-methylaminopropyl)-7H-dibenzo(a,c)cyclohepten-5-one(7).oxalate] | 800 mg/kg |  | no effect | 75 mg/kg |  | Spontaneous motility (C), S = substance (spontaneous motility; 150 mg/kg i.g., control K 15): 19 impulses per minute; Anticholinergic action (mydriasis) (E) (mydriasis; up to 200 mg/kg i.g.): no effect
CCN(CC)CCOc1cc(=O)c2ccccc2c2ccccc12 [Example 1, 5-(2-Diethylaminoethoxy)-7H-dibenzo(a,c)cyclohepten-5-one(7).hydrochloride] | 300 mg/kg | 5 mg/kg | no effect | 20 mg/kg | no effect | Spontaneous motility (C), S = substance (spontaneous motility; 5 mg/kg s.c., control K 17): 20 impulses per minute; Influence on the sleeping period (D) ([2]; 5 mg/kg s.c.): -42%; inhibition at 25 mg/kg (gastric secretion; Shay preparation, 25 mg/kg i.g.): 56%
CCN(CC)CCCc1cc(=O)c2ccccc2c2ccccc12 [Example 4B, 5-(3-Diethylaminopropyl)-7H-dibenzo(a,c)cyclohepten-5-one(7).oxalate] | 200 mg/kg | 10 mg/kg | no effect | 30 mg/kg | no effect | Spontaneous motility (C), S = substance (spontaneous motility; [5]): 21 impulses per minute; Influence on the sleeping period (D) ([2]; 10 mg/kg s.c.): +11%
CN(C)CCCc1cc(=O)c2ccccc2c2ccccc12 [Example 4A, 5-(3-Dimethylaminopropyl)-7H-dibenzo(a,c)cyclohepten-5-one(7)] | 200 mg/kg | 5 mg/kg | no effect | 20 mg/kg | no effect | Spontaneous motility (C), S = substance (spontaneous motility; [5]): 12 impulses per minute
CN/C(=N/CCSCc1nc[nH]c1C)NC#N [cimetidine, reference compound] |  |  |  |  |  | inhibition at 80 mg/kg (gastric secretion; read-out: Inhibition of gastric secretion): 45%
